The values that follow come from patent publication US9862676B2, “Hydroxamic acid derivative or salt thereof” (TOYAMA CHEMICAL CO., LTD., priority 2013, dated 2018).

Molecules are shown by their SMILES. In brackets after ≈: the same amount, converted by molar mass. Some results are limits rather than exact numbers.

In series [1] the target is T1, Pseudomonas aeruginosa LpxC enzyme (Pseudomonas aeruginosa, UniProt P47205).
T1 construct: made in house; host or cells: Escherichia coli
T1 sequence (P47205 1-303): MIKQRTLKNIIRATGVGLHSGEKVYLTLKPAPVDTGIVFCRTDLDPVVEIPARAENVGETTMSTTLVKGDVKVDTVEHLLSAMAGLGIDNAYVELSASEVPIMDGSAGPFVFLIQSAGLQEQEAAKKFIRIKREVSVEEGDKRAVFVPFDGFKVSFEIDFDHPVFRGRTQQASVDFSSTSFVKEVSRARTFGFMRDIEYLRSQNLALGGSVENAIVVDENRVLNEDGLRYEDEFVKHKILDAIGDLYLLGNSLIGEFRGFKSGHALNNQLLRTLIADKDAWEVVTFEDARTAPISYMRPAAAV
Description: Test to evaluate Pseudomonas aeruginosa LpxC enzyme inhibitory activity. Type of series: biochemical. The protocol:
The Pseudomonas aeruginosa LpxC enzyme activity was measured by reacting LpxC with its substrate UDP-3-O—(R-3-hydroxydecanoyl)-N-acetylglucosamine and measuring the amount of the reaction product by the quantification of an amino group present in the product. This measurement was carried out according to a method described in, for example, International Publication No. WO 11/132712 pamphlet or a method similar thereto.
Specifically, to the Pseudomonas aeruginosa LpxC enzyme (which was obtained by preparing chromosomal DNA from Pseudomonas aeruginosa, obtaining the Pseudomonas aeruginosa LpxC gene by PCR (polymerase chain reaction) using LpxC-specific primers, and incorporating this gene into a vector, followed by gene expression using Escherichia coli), 20 μmol/L UDP-3-O—(R-3-hydroxydecanoyl)-N-acetylglucosamine (Wako Pure Chemical Industries, Ltd.) was added, and the mixture was incubated at 25° C. for 1 hour. This reaction was carried out in a 40 mmol/L HEPES buffer solution (pH 8.0) containing 0.02% Brij 35 and 80 μmol/L dithiothreitol. The reaction was terminated by the addition of 20% acetic acid (final concentration: 0.95%) to the reaction solution. Then, fluorescamine (final concentration: 1.6 mg/mL) dissolved in anhydrous dioxane was added thereto. The amount of the reaction product was detected at an excitation wavelength/fluorescence wavelength=390 nm/495 nm. Each test compound was allowed to coexist at various concentrations in the reaction to obtain an inhibition curve.

Series [2] is described as follows: Test on inhibition of Vero cell growth (XTT). It counts as cell-based. The conditions noted are these: African green monkey, Vero cells, 3 days culture, read-out: CC50 (concentration inhibiting 50% of cell growth). The method, then: Each test compound was dissolved in dimethyl sulfoxide, adjusted to each concentration using E'MEM, and then dispensed at 0.1 mL/well to 96-well microplates. The Vero cell suspension was prepared at 3×10^4 cells/mL using E'MEM supplemented with 20% FBS, inoculated thereto at 0.1 mL/well, and cultured at 37° C. for 3 days under 5% CO2. At the completion of the culture, PBS supplemented with 1 mg/mL 2,3-bis-(2-methoxy-4-nitro-5-sulfophenyl)-5-((phenylamino)carbonyl)-2H-tetrazolium inner salt monosodium salt (XTT) and 25 μM phenazine methosulfate (PMS) was prepared and added thereto at 50 μL/well. Approximately 2 hours later, the absorbance at 450 nm was measured using a microplate reader.
A general note: Formazan colour is commonly taken as a measure of viable cells.

For series [3], the system named is Klebsiella pneumoniae ATCC13883 strain. Description: Antibacterial activity, MIC by broth microdilution (CLSI). It counts as cell-based. The method, then:
(§1) The minimum inhibitory concentration (MIC) was measured according to the CLSI (Clinical and Laboratory Standards Institute) standard method using a broth microdilution method given below. The bacteria used were a Pseudomonas aeruginosa ATCC27853 strain, an Escherichia coli ATCC25922 strain and a Klebsiella pneumoniae ATCC13883 strain. Test bacterial cells of each strain cultured overnight in a Mueller-Hinton agar medium were scraped off and suspended at the McFarland 0.5 standard, and this suspension was diluted 10-fold to prepare an inoculum solution. The inoculum solution (0.005 mL) was inoculated to a cation-adjusted Mueller-Hinton medium containing each test compound and cultured at 35° C. for 16 to 20 hours. The minimum drug concentration at which bacterial growth was not visible to the naked eye was defined as MIC.
(Broth dilution looks for growth in wells or tubes with falling amounts of substance.)

Series [4] concerns Escherichia coli ATCC25922 strain. Described as above. Type of series: cell-based. The protocol:
as §1

Series [5] deals with Pseudomonas aeruginosa ATCC27853 strain. The description is as above. It counts as cell-based. The protocol:
as §1

Series [6] deals with multidrug-resistant Pseudomonas aeruginosa clinical isolate (S-2838 strain). Description: Defense against mouse systemic infection using multidrug-resistant Pseudomonas aeruginosa. It counts as in vivo. The conditions noted are these: male ICR mice, S-2838 strain i.p. The protocol:
The mice used were male ICR SPF mice (4 weeks old: 5 individuals per group). To prepare a bacterial inoculum solution, a multidrug-resistant Pseudomonas aeruginosa clinical isolate (S-2838 strain) cultured overnight at 37° C. on a Mueller-Hinton agar plate was cultured for 5 hours in a cation-adjusted Mueller-Hinton medium and then diluted 10-fold with a 10% mucin/phosphate buffer solution to prepare the inoculum solution. Infection was induced by the intraperitoneal inoculation of 0.5 mL of the inoculum solution (approximately 10^6 CFU/mouse) to each mouse. Each test compound was dissolved in a 10% hydroxypropylated β-cyclodextrin/2.5% mannitol aqueous solution and intravenously administered to the tail a single dose of 50 mg/kg at 1 hour after the infection. Three days after the infection, the number of survivors was recorded.

The next series addresses T2, hERG current (Homo sapiens, UniProt Q12809).
T2 construct: host or cells: HEK 293 cells
Description: Evaluation of hERG inhibitory activity (whole cell clamp, HEK 293 cells). Type of series: cell-based. The conditions noted are these: up to 300 μmol/L; HEK 293 cells transfected with hERG gene, tail current 10 minutes after application. The protocol:
HEK 293 cells (human embryo kidney 293 cells, Cytomyx LLC) transfected with hERG gene (human ether-a-go-go related gene) were used. The culture solution used was a MEM medium containing 10% fetal bovine serum and 1% nonessential amino acid and further supplemented with Geneticin at a concentration of 400 μg/mL. The cells were cultured in a carbonic acid gas incubator (37.0° C., 5% CO2).
The hERG current was measured by a whole cell clamp method. A glass cover with the cells for measurement attached thereto was placed in a dish and perfused at a rate of 2 mL/min with a perfusate (composition: 137 mmol/L NaCl, 4 mmol/L KCl, 10 mmol/L HEPES, 1.8 mmol/L CaCl2, 1 mmol/L MgCl2, 10 mmol/L glucose, pH 7.4). The inside temperature of the perfusion chamber was kept at 25° C. […]
Before the application and 10 minutes after the application, the peak value of tail current in the hERG current waveform was analyzed to calculate the ratio of the value 10 minutes after the application to the value before the application (relative value, %).

The subject of series [7] is Chinese hamster lung fibroblasts (CHL/IU cells). Description: In vitro micronucleus test for genotoxicity. It counts as cell-based. The conditions noted are these: dose of 1 mmol/L or lower, short-time treatment (with and without metabolic activation) and 30-hour treatment methods. The method, then: In order to examine the inducibility of the chromosomal aberrations by each test compound in cultured cells, the in vitro micronucleus test was carried out. This test was carried out by a short-time treatment method (in the presence and absence of a metabolic activation) and a 30-hour treatment method using Chinese hamster lung fibroblasts (CHL/IU cells). The concentration of the test compound was set to 1.00 mmol/L as the maximum dose with reference to the “Guidance on Genotoxicity Testing and Data Interpretation for Pharmaceuticals Intended for Human Use”. Specimens were observed as to doses of 0.25, 0.50 and 1.00 mmol/L. The cells were inoculated at 15×10^4 cells to a 60-mm dish (IWAKI) and precultured at 37° C. for 24 hours under 5% CO2 using a MEM medium (Sigma-Aldrich Co., Ltd.) containing 10% newborn calf serum (Sigma-Aldrich Co., Ltd.) and 50 U/mL-50 μg/mL Penicillin-Streptomycin (Sigma-Aldrich Co., Ltd.). After the completion of the preculture, a vehicle (DMSO) or each test compound was added thereto. In the short-time treatment method, 6 hours after the culture, the cells were washed with PBS(−) (Sigma-Aldrich Co., Ltd.), and then, the medium was replaced with a fresh medium, followed by further culture for 24 hours. In the 30-hour treatment method, after the addition of the test compound, the cells were cultured for 30 hours. […]

Where [8] appears, read: single intravenous dose 50 mg/kg 1 hour after infection.

T2 sequence (Q12809 whole entry): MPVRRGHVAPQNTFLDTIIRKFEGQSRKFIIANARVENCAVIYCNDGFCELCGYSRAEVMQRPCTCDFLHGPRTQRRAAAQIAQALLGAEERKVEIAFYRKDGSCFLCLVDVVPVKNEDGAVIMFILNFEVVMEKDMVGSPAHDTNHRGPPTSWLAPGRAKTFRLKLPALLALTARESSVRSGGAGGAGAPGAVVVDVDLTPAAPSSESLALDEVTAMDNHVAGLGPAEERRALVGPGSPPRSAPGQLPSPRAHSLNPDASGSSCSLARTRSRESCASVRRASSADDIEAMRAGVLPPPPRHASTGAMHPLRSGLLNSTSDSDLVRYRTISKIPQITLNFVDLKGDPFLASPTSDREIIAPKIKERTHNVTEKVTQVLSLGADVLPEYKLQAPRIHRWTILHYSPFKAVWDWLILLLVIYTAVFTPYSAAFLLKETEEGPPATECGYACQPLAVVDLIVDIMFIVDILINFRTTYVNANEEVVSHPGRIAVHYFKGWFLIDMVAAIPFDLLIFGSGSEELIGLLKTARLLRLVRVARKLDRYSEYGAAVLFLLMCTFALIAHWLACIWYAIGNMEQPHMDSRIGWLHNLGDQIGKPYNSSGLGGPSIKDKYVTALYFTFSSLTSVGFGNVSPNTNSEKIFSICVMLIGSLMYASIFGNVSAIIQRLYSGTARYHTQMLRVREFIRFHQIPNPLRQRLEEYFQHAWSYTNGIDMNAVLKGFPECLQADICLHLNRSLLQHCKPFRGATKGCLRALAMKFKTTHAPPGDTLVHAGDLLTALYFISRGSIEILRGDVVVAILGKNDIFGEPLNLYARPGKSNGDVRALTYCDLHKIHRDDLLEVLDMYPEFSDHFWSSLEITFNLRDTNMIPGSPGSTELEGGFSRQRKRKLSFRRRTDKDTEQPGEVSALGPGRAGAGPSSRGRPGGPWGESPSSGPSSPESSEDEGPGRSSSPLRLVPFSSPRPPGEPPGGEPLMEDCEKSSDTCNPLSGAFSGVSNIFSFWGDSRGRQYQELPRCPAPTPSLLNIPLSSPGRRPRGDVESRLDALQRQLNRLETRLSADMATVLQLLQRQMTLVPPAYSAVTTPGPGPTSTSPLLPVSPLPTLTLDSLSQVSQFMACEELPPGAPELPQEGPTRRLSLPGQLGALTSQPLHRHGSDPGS

Broadly, the IC50 is the concentration that inhibits the measured activity by half. A lower IC50 goes with inhibition by little substance. As usually defined, the MIC is the lowest concentration that inhibits growth of the organism. High values mean a less susceptible organism, low ones a more susceptible organism. In the case of `CNC(=O)[C@@](C)(C(=O)NO)N(C)C(=O)c1ccc(C#Cc2ccc(COCCO)cc2)cc1` [Example 1, (2S)—N-hydroxy-2-((4-((4-((2-hydroxyethoxy)methyl)phenyl)ethynyl)benzoyl)(methyl)amino)-N′,2-dimethyl-malonamide], the IC50 in series [1] is < 50 nM. Also, the CC50 at 3 days in series [2] is ≥ 100 µg/mL. Also, the MIC in series [3] stood at 1 µg/mL (≈ 2.21 µM); in series [4] it was 0.25 µg/mL (≈ 0.551 µM); in series [5], 1 µg/mL (≈ 2.21 µM).
Turning to `CNC(=O)[C@@](C)(C(=O)NO)N(C)C(=O)c1ccc(C#Cc2ccc([C@@H](O)CO)cc2)cc1` [Example 19, (2S)-2-((4-((4-((1R)-1,2-dihydroxyethyl)phenyl)ethynyl)benzoyl)(methyl)amino)-N-hydroxy-N′,2-dimethyl-malonamide], the IC50 in series [1] is < 50 nM. Moreover, in series [6] (setting [8]), the “mice surviving 3 days after the bacterial inoculation” value (“mice surviving 3 days” below) was 100%. For the same compound, the CC50 at 3 days in series [2] was ≥ 100 µg/mL. For the same compound, the MIC in series [5] worked out at 1 µg/mL (≈ 2.28 µM).
In the case of `CNC(=O)[C@@](C)(C(=O)NO)N(C)C(=O)c1ccc(C#Cc2ccc([C@H](O)CO)cc2)cc1` [Example 20, (2S)-2-((4-((4-((1S)-1,2-dihydroxyethyl)phenyl)ethynyl)benzoyl)(methyl)amino)-N-hydroxy-N′,2-dimethyl-malonamide], the half-maximal inhibitory concentration (IC50) in series [1] was < 50 nM. The results for the “mice surviving 3 days” value in series [6] (25 mg/kg) and in series [6] (setting [8]) were ≥ 60% and 100%, respectively. Further, the CC50 at 3 days in series [2] is ≥ 100 µg/mL. Moreover, the hERG inhibitory activity result on hERG current was “did not exhibit hERG inhibitory activity”. Besides, the MIC in series [5] is 1 µg/mL (≈ 2.28 µM). Besides, in series [7], the “in vitro micronucleus test result” value is reported as “negative”.
Consider `CNC(=O)[C@@](C)(C(=O)NO)N(C)C(=O)c1ccc(C#Cc2ccc([C@H](O)COC)cc2)cc1` [Example 23, (2S)—N-hydroxy-2-((4-((4-((1S)-1-hydroxy-2-methoxyethyl)phenyl)ethynyl)benzoyl)(methyl)amino)-N′,2-dimethyl-malonamide], for which, in series [1], the IC50 is < 50 nM. For the same compound, the “mice surviving 3 days” value in series [6] (setting [8]) is 100%. Besides, the CC50 at 3 days in series [2] was ≥ 100 µg/mL. For the same compound, the hERG inhibitory activity entry at hERG current was “did not exhibit hERG inhibitory activity”. In addition, the MIC in series [3] was 1 µg/mL (≈ 2.21 µM); in series [4] it was 0.25 µg/mL (≈ 0.551 µM); in series [5] it was 1 µg/mL (≈ 2.21 µM).
For `CNC(=O)[C@@](C)(C(=O)NO)N(C)C(=O)c1ccc(C#Cc2ccc([C@H](O)CCOC)cc2)cc1` [Example 36, (2S)—N-hydroxy-2-((4-((4-((1R)-1-hydroxy-3-methoxypropyl)phenyl)ethynyl)benzoyl)(methyl)amino)-N′,2-dimethylmalonamide], in series [1], the IC50 was < 50 nM. Moreover, the CC50 at 3 days in series [2] is ≥ 100 µg/mL. For the same compound, the MIC in series [3] was determined as 1 µg/mL (≈ 2.14 µM); in series [4], 0.25 µg/mL (≈ 0.535 µM); in series [5], 0.5 µg/mL (≈ 1.07 µM).
As for `CNC(=O)[C@@](C)(C(=O)NO)N(C)C(=O)c1ccc(C#Cc2ccc([C@H](O)CCCO)cc2)cc1` [Example 39, (2S)-2-((4-((4-((1R)-1,4-dihydroxybutyl)phenyl)ethynyl)benzoyl)(methyl)amino)-N-hydroxy-N′,2-dimethyl-malonamide], the half-inhibitory concentration (IC50) in series [1] was < 50 nM. Also, the “mice surviving 3 days” value in series [6] (setting [8]) worked out at 100%. Further, the values for the minimum inhibitory concentration (MIC) in series [3], in series [4] and in series [5] were 1 µg/mL (≈ 2.14 µM), 0.5 µg/mL (≈ 1.07 µM) and 1 µg/mL (≈ 2.14 µM), respectively.
